Literature values as cited in Sander's compilation of Henry's law constants (doi:10.1021/je049693f).
Values joined by “and” are separate entries in the source; they are usually repeats but may differ in a detail not shown here. Equal entries are not always repeated.

Test: Henry solubility constant Hcp at 298.15 K (mol/(m3 Pa))
Details: reference: Shen and Wania (2005); cited value

SMILES | Henry solubility constant Hcp
Clc1ccc(C(c2ccc(Cl)cc2)C(Cl)(Cl)Cl)cc1 [1,1,1-trichloro-2,2-bis-(4-chlorophenyl)-ethane] | 0.91
Clc1ccc(C(c2ccc(Cl)cc2)C(Cl)Cl)cc1 [1,1-dichloro-2,2-bis-(4-chlorophenyl)-ethane] | 1.5 and 2
ClC(Cl)=C(c1ccc(Cl)cc1)c1ccc(Cl)cc1 [1,1-dichloro-2,2-bis-(4-chlorophenyl)-ethene] | 0.24
ClC1=C(Cl)[C@]2(Cl)[C@H]3[C@H]([C@@H]4C=C[C@H]3C4)[C@@]1(Cl)C2(Cl)Cl [aldrin] | 0.067 and 0.043
ClC1=C(Cl)[C@]2(Cl)[C@@H]3[C@@H](Cl)[C@@H](Cl)C[C@@H]3[C@@]1(Cl)C2(Cl)Cl [cis-chlordane] | 0.17 and 0.18
ClC1=C(Cl)[C@]2(Cl)[C@@H]3[C@@H]4C[C@@H]([C@H]5O[C@@H]45)[C@@H]3[C@@]1(Cl)C2(Cl)Cl [dieldrin] | 1 and 0.91
ClC1=C(Cl)[C@]2(Cl)[C@@H]3[C@H]4C[C@H]([C@@H]5O[C@H]45)[C@@H]3[C@@]1(Cl)C2(Cl)Cl [endrin] | 1.6 and 0.91
ClC1=C(Cl)C2(Cl)C3C(Cl)C=CC3C1(Cl)C2(Cl)Cl (stereo not given) [heptachlor] | 0.033 and 0.026
ClC1=C(Cl)C2(Cl)C3C4OC4C(Cl)C3C1(Cl)C2(Cl)Cl (stereo not given) [heptachlorepoxide] | 0.48 and 0.59
ClC1=C(Cl)[C@]2(Cl)[C@H]3[C@H](Cl)[C@@H](Cl)C[C@H]3[C@@]1(Cl)C2(Cl)Cl [trans-chlordane] | 0.17 and 0.15
